PubChem BioAssay AID732 (Emory University Molecular Libraries Screening Center, 2007)
Several values for one entry are separate records, joined by “and”; a condition that tells them apart may be missing. Equal entries are not always repeated. Activity calls are given as the source filed them. How the calls were made is not given here. Peptide text beside a SMILES is read from it. * marks the point of attachment. Cbz = O=C(OCc1ccccc1)*

Test system: in vivo angiogenesis, blood vessel count
Test: angiogenesis inhibition in living animals, in vivo study, HTS (AID 732);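 further: zebrafish embryos dosed at one day post fertilization; 0% = reference inhibitor and 100% = plate mean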
Conditions: hits give low values;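 tested at 30 µM in the well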

| SMILES | vessel count % control |
| --- | --- |
| O=C(O)[C@H]1NCCC[C@H]1C(=O)O | 121% (inactive) |
| OCC1NC[C@@H](O)C(O)[C@@H]1O (some centres not stated) | 89.4% (inactive) |
| O=C(O)C1=CCNCC1 | 131% (inactive) |
| O=c1[nH]c(=O)n([C@H]2C[C@H](O)[C@@H](CO)O2)cc1Br | 105% (inactive) |
| O=C(c1cc(O)c(O)c([N+](=O)[O-])c1)c1ccccc1F | 116% (inactive) |
| O=C(O)/C=C/c1ccc(O)c(O)c1 | 108% (inactive) |
| C[C@H]1OC[C@@H](C[N+](C)(C)C)O1 | 115% (inactive) |
| COc1ccc(NC(=O)c2ccc(-c3ccc(-c4noc(C)n4)cc3C)cc2)cc1N1CCN(C)CC1 | 93% (inactive) |
| COc1ccc2c(c1OC)C(=O)O[C@H]2[C@@H]1c2cc3c(cc2CCN1C)OCO3 | 116% (inactive) |
| O=C(O)CN(CCN(CC(=O)O)CC(=O)O)CCN(CC(=O)O)CC(=O)O | 0% (inactive) |
| O=C(O)C1CCNCC1 | 99.7% (inactive) |
| CN(C)CC/C=C1\c2ccccc2COc2ccccc21 | 97.3% (inactive) |
| CN=c1nc(-c2ccccc2)n(-c2ccccc2)s1 | 125% (inactive) |
| CCCN1CCC[C@@H]2Cc3[nH]ncc3C[C@H]21 | 129% (inactive) and 112% (inactive) |
| CC(CN1c2ccccc2Sc2ccccc21)N(C)C (configuration not stated) | 97.7% (inactive) |
| C/C(=C\c1ccc(C(=O)O)cc1)c1ccc2c(c1)C(C)(C)CCC2(C)C | 70% (inactive) |
| CN1C(C(=O)Nc2ccccn2)=C(O)c2ccccc2S1(=O)=O | 110% (inactive) |
| CN(C)C/C=C(/c1ccc(Br)cc1)c1cccnc1 | 104% (inactive) |
| Nc1ncnc2c1ncn2C1CCCO1 (configuration not stated) | 101% (inactive) |
| OCc1ccc(-c2nn(Cc3ccccc3)c3ccccc23)o1 | 78.2% (inactive) |
| CCN(CC)CCCC(C)Nc1c2ccc(Cl)cc2nc2ccc(OC)cc12 (configuration not stated) | 0% (inactive) |
| Oc1ccc2c3c1O[C@H]1c4oc5ccccc5c4C[C@@]4(O)C(C2)N(CC2CC2)CCC314 (some centres not stated) | 93.1% (inactive) |
| O=C(O)CCC(NC(=O)c1ccccc1C(=O)O)C(=O)O (configuration not stated) | 103% (inactive) |
| Cc1ccc(S(=O)(=O)N[C@@H](CCCCN)C(=O)CCl)cc1 | 133% (inactive) |

| SMILES | vessel count % control |
| --- | --- |
| O=C1NC(=O)C(c2ccccc2[N+](=O)[O-])=C1Nc1ccc(O)c(Cl)c1 | 105% (inactive) |
| CC(C(=O)O)c1ccc(CC2CCCC2=O)cc1 (configuration not stated) | 113% (inactive) |
| Nc1ncnc2c1nc(Sc1ccc(Cl)cc1)n2C1OC2COP(=O)(O)O[C@@H]2[C@@H]1O (some centres not stated) | 88.9% (inactive) |
| COc1ccc2[nH]c(I)c(CCNC(C)=O)c2c1 | 107% (inactive) |
| Nc1ncnc2c1ncn2[C@@H]1O[C@H](COP(=O)(O)OP(=O)(O)OP(=O)(O)OP(=O)(O)OC[C@@H]2O[C@H](n3cnc4c(N)ncnc43)C(O)[C@@H]2O)[C@H](O)C1O (some centres not stated) | 89.7% (inactive) |
| O=C(O)c1cc(=O)cc(C(=O)O)[nH]1 | 86.1% (inactive) |
| O=C(CCCN1CCC2(CC1)C(=O)NCN2c1ccccc1)c1ccc(F)cc1 | 77.9% (inactive) |
| COc1cc(C(O)C(=O)O)ccc1O (configuration not stated) | 92.5% (inactive) |
| COc1cc2c(CCNC(C)=O)c[nH]c2cc1O | 105% (inactive) |
| CCN1CCC[C@H]1CNC(=O)c1c(O)c(Cl)cc(Cl)c1OC | 103% (inactive) |
| CN(C)C(=O)Oc1cccc([N+](C)(C)C)c1 | 87.6% (inactive) |
| CN1C2CCC1CC(OC(=O)C(CO)c1ccccc1)C2 (configuration not stated) | 120% (inactive) and 116% (inactive) |
| CNCCC(Oc1ccccc1OC)c1ccccc1 (configuration not stated) | 113% (inactive) |
| COC[C@H]1OC(=O)c2coc3c2[C@@]1(C)C1=C(C3=O)C2CCC(=O)[C@@]2(C)C[C@H]1OC(C)=O (some centres not stated) | 0% (inactive) |
| CC(C)[C@H](NC(=O)OCc1ccccc1)C(=O)N[C@H](C=O)Cc1ccccc1 (Cbz-Val-Phe-aldehyde) | 107% (inactive) |
| CN[C@@H](C)[C@H](O)c1ccccc1 | 91.4% (inactive) |
| CN1[C@@H](CC(=O)c2ccccc2)CCC[C@H]1C[C@H](O)c1ccccc1 | 107% (inactive) |
| Oc1ccc(/C=C/c2cc(O)cc(O)c2)cc1 | 100% (inactive) |
| NC(N)=Nc1ccc2[nH]c3c(c2c1)C[C@@]1(O)[C@H]2Cc4ccc(O)c5c4[C@@]1(CCN2CC1CC1)[C@H]3O5 | 101% (inactive) |
| COc1cc(C(O)CO)ccc1O (configuration not stated) | 96.8% (inactive) |
| CC(C(=O)O)c1cccc(C(=O)c2ccccc2)c1 (configuration not stated) | 122% (inactive) |
| COc1ccc(-n2nc(C(F)(F)F)cc2-c2ccc(Cl)cc2)cc1 | 126% (inactive) |
| COc1ccccc1N1CCN(CCN(C(=O)c2ccc(F)cc2)c2ccccn2)CC1 | 103% (inactive) |
| O=C(O)CNC(=O)C(CS)Cc1ccccc1 (configuration not stated) | 117% (inactive) |

| SMILES | vessel count % control |
| --- | --- |
| CNC(=O)[C@H]1O[C@@H](n2cnc3c(NCc4cccc(I)c4)ncnc32)C(O)[C@H]1O (some centres not stated) | 83.3% (inactive) |
| NC(N)=NC(=O)Cc1c(Cl)cccc1Cl | 119% (inactive) |
| Cc1c(C(=O)c2cccc3ccccc23)c2cccc3c2n1[C@H](CN1CCOCC1)CO3 | 0% (inactive) |
| Fc1ccc([C@@H]2CCNC[C@H]2COc2ccc3c(c2)OCO3)cc1 | 138% (inactive) |
| C[N+](C)(C)CCCCCC[N+](C)(C)C | 115% (inactive) and 117% (inactive) |
| CC(=O)Oc1ccccc1C(=O)O | 105% (inactive) |
| CCc1cccc(N(C)C(N)=Nc2cccc3ccccc23)c1 | 105% (inactive) |
| COC(=O)[C@@H](N)CCCN=C(N)N[N+](=O)[O-] | 95% (inactive) |
| CC(Cc1ccc(OCC(=O)O)cc1)NCC(O)c1cccc(Cl)c1 (configuration not stated) | 97.7% (inactive) |
| Cc1cccc(C)c1OCC(C)N (configuration not stated) | 99.4% (inactive) |
| C[N+]1(CCCCC[N+]2(C)CCCC2)CCCC1 | 114% (inactive) |
| CCn1cc(C(=O)O)c(=O)c2ccc(C)nc21 | 135% (inactive) |
| c1ccc(-c2ccccn2)nc1 | 109% (inactive) |
| NC1(C(=O)O)CCc2cc(C(=O)O)ccc21 (configuration not stated) | 79.6% (inactive) |
| CC(=O)NCCc1c[nH]c2ccc(O)cc12 | 101% (inactive) |
| N#C/C(=C\c1c[nH]c2ccccc12)C(=O)c1ccc(O)c(O)c1 | 102% (inactive) |
| O=C(c1ccc2c(c1)OCCO2)N1CCCCC1 | 106% (inactive) |
| C#CCn1c(=O)c2c(ncn2C)n(C)c1=O | 103% (inactive) |
| C[N+]1(C)C2CC(OC(=O)[C@H](CO)c3ccccc3)CC1C1OC12 (some centres not stated) | 105% (inactive) and 146% (inactive) |
| COc1ccc(C2CNC(=O)C2)cc1OC1CCCC1 (configuration not stated) | 96.6% (inactive) |
| O=C(OCCN1CCOCC1)C1(c2ccccc2)CCCCC1 | 91.6% (inactive) |
| NC1C=CC=C(C(=O)O)C1 (configuration not stated) | 114% (inactive) |
| CN1CCN(CCCN2c3ccccc3Sc3ccc(C(F)(F)F)cc32)CC1 | 105% (inactive) |
| CSC(=N)N | 68.6% (inactive) |
